The nature of the series: activity coefficient (dimensionless); of the first substance listed, at infinite dilution; xn = mol fraction of the nth substance listed. As to conditions: Liquid, Chromatography, x1 = 0.

“And” between values parts separate entries of the source, which are not always exact repeats. Identical values can stand only once. ± gives the expanded uncertainty stated by the source.

`C1CCCC1` [cyclopentane] + CCCCCCCC[N+](C)(CCCCCCCC)CCCCCCCC.O=S(=O)([N-]S(=O)(=O)C(F)(F)F)C(F)(F)F: the activity coefficient is 0.71 ± 0.03 (303.15 K); 0.69 and 0.7 (313.15 K); 0.7 and 0.69 (323.15 K).

Regarding `CCCCCCCCC` [nonane] + CCCCCCCC[N+](C)(CCCCCCCC)CCCCCCCC.O=S(=O)([N-]S(=O)(=O)C(F)(F)F)C(F)(F)F, the activity coefficient runs as follows: (303.15 K) 2.57 and 2.59; (313.15 K) 2.39 ± 0.11; (323.15 K) 2.21 ± 0.1.

For `C1CCCCC1` [cyclohexane] + CCCCCCCC[N+](C)(CCCCCCCC)CCCCCCCC.O=S(=O)([N-]S(=O)(=O)C(F)(F)F)C(F)(F)F, the activity coefficient (303.15 K) was found to be 0.84 ± 0.03; the activity coefficient (313.15 K) was 0.8 and 0.81; the activity coefficient (323.15 K) was 0.8 and 0.79.

On to `CCO` [ethanol] + CCCCCCCC[N+](C)(CCCCCCCC)CCCCCCCC.O=S(=O)([N-]S(=O)(=O)C(F)(F)F)C(F)(F)F, for which the activity coefficient is, setting by setting: (303.15 K) 0.94 and 0.95; (313.15 K) 0.85 and 0.87; (323.15 K) 0.8 and 0.83.

For `C1CCCCCC1` [cycloheptane] + CCCCCCCC[N+](C)(CCCCCCCC)CCCCCCCC.O=S(=O)([N-]S(=O)(=O)C(F)(F)F)C(F)(F)F, the activity coefficient (303.15 K) was 0.95 and 0.94; the activity coefficient (313.15 K) is 0.9 and 0.91; the activity coefficient (323.15 K) is 0.89 and 0.88.

Regarding `C=CCCCCC` [1-heptene] + CCCCCCCC[N+](C)(CCCCCCCC)CCCCCCCC.O=S(=O)([N-]S(=O)(=O)C(F)(F)F)C(F)(F)F, the activity coefficient by setting is: (303.15 K) 1.46 and 1.44; (313.15 K) 1.45 and 1.43; (323.15 K) 1.44 and 1.42.

`C1CCCCCCCC1` [cyclononane] + CCCCCCCC[N+](C)(CCCCCCCC)CCCCCCCC.O=S(=O)([N-]S(=O)(=O)C(F)(F)F)C(F)(F)F: the activity coefficient runs as follows: (303.15 K) 1.76 and 1.74; (313.15 K) 1.68 ± 0.07; (323.15 K) 1.63 and 1.61.

For the molecule `CO` [methanol] + CCCCCCCC[N+](C)(CCCCCCCC)CCCCCCCC.O=S(=O)([N-]S(=O)(=O)C(F)(F)F)C(F)(F)F, the activity coefficient was 0.88 and 0.89 (303.15 K); 0.81 and 0.82 (313.15 K); 0.79 and 0.81 (323.15 K).

As to `C=CCCCCCCC` [1-nonene] + CCCCCCCC[N+](C)(CCCCCCCC)CCCCCCCC.O=S(=O)([N-]S(=O)(=O)C(F)(F)F)C(F)(F)F, the activity coefficient by setting is: (303.15 K) 1.99 ± 0.09; (313.15 K) 1.87 and 1.91; (323.15 K) 1.81 and 1.85.

`CCCO` [propan-1-ol] + CCCCCCCC[N+](C)(CCCCCCCC)CCCCCCCC.O=S(=O)([N-]S(=O)(=O)C(F)(F)F)C(F)(F)F: the activity coefficient was 1.37 and 1.35 (303.15 K); 1.24 and 1.22 (313.15 K); 1.13 and 1.15 (323.15 K).

Turning to `CCCCCCCC` [octane] + CCCCCCCC[N+](C)(CCCCCCCC)CCCCCCCC.O=S(=O)([N-]S(=O)(=O)C(F)(F)F)C(F)(F)F, the activity coefficient by setting is: (303.15 K) 1.52 and 1.54; (313.15 K) 1.46 and 1.49; (323.15 K) 1.44 and 1.43.

On to `C1CCCCCCC1` [cyclooctane] + CCCCCCCC[N+](C)(CCCCCCCC)CCCCCCCC.O=S(=O)([N-]S(=O)(=O)C(F)(F)F)C(F)(F)F, for which the activity coefficient is 1.08 and 1.07 (303.15 K); 1.01 and 1.03 (313.15 K); 0.99 and 1.03 (323.15 K).

Take `C=CCCC` [1-pentene] + CCCCCCCC[N+](C)(CCCCCCCC)CCCCCCCC.O=S(=O)([N-]S(=O)(=O)C(F)(F)F)C(F)(F)F: the activity coefficient is 0.78 ± 0.03 (303.15 K); 0.76 and 0.74 (313.15 K); 0.76 and 0.78 (323.15 K).

Regarding `C=CCCCCCCCC` [1-decene] + CCCCCCCC[N+](C)(CCCCCCCC)CCCCCCCC.O=S(=O)([N-]S(=O)(=O)C(F)(F)F)C(F)(F)F, the activity coefficient is 2.26 and 2.22 (303.15 K); 2.13 and 2.11 (313.15 K); 2.07 and 2.05 (323.15 K).

Turning to `C#CCCCCC` [1-heptyne] + CCCCCCCC[N+](C)(CCCCCCCC)CCCCCCCC.O=S(=O)([N-]S(=O)(=O)C(F)(F)F)C(F)(F)F, the activity coefficient (303.15 K) came out at 0.89 ± 0.1; the activity coefficient (313.15 K) is 0.89 and 0.91; the activity coefficient (323.15 K) is 0.9 and 0.92.

As to `CCCCCCCCCC` [decane] + CCCCCCCC[N+](C)(CCCCCCCC)CCCCCCCC.O=S(=O)([N-]S(=O)(=O)C(F)(F)F)C(F)(F)F, the activity coefficient reads like this: (303.15 K) 3.2 and 3; (313.15 K) 2.74 and 2.72; (323.15 K) 2.5 ± 0.11.

Regarding `C#CCCCCCCCC` [1-decyne] + CCCCCCCC[N+](C)(CCCCCCCC)CCCCCCCC.O=S(=O)([N-]S(=O)(=O)C(F)(F)F)C(F)(F)F, the activity coefficient was 1.3 ± 0.04 (303.15 K); 1.33 and 1.31 (313.15 K); 1.32 and 1.34 (323.15 K).

Regarding `Cc1ccccc1` [toluene] + CCCCCCCC[N+](C)(CCCCCCCC)CCCCCCCC.O=S(=O)([N-]S(=O)(=O)C(F)(F)F)C(F)(F)F, the activity coefficient was 0.51 ± 0.03 (303.15 K); 0.52 ± 0.03 (313.15 K); 0.55 and 0.53 (323.15 K).

Turning to `C#CCCCC` [1-hexyne] + CCCCCCCC[N+](C)(CCCCCCCC)CCCCCCCC.O=S(=O)([N-]S(=O)(=O)C(F)(F)F)C(F)(F)F, the activity coefficient was 0.59 ± 0.03 (303.15 K); 0.59 ± 0.03 (313.15 K); 0.6 and 0.62 (323.15 K).

As for `CCCCCC` [hexane] + CCCCCCCC[N+](C)(CCCCCCCC)CCCCCCCC.O=S(=O)([N-]S(=O)(=O)C(F)(F)F)C(F)(F)F, the activity coefficient by setting is: (303.15 K) 1.13 ± 0.03; (313.15 K) 1.11 and 1.12; (323.15 K) 1.11 and 1.1.

Consider `C=CCCCCCC` [oct-1-ene] + CCCCCCCC[N+](C)(CCCCCCCC)CCCCCCCC.O=S(=O)([N-]S(=O)(=O)C(F)(F)F)C(F)(F)F, for which the activity coefficient is, setting by setting: (303.15 K) 1.69 ± 0.07; (313.15 K) 1.65 and 1.67; (323.15 K) 1.64 and 1.66.

Consider `CCCCC` [pentane] + CCCCCCCC[N+](C)(CCCCCCCC)CCCCCCCC.O=S(=O)([N-]S(=O)(=O)C(F)(F)F)C(F)(F)F, for which the activity coefficient is, setting by setting: (303.15 K) 1.01 and 1; (313.15 K) 0.99 ± 0.11; (323.15 K) 1 and 0.98.

For `C#CCCCCCC` [1-octyne] + CCCCCCCC[N+](C)(CCCCCCCC)CCCCCCCC.O=S(=O)([N-]S(=O)(=O)C(F)(F)F)C(F)(F)F, the activity coefficient is, setting by setting: (303.15 K) 1.07 and 1.05; (313.15 K) 1.08 and 1.06; (323.15 K) 1.1 and 1.08.

Consider `CCCCCCC` [heptane] + CCCCCCCC[N+](C)(CCCCCCCC)CCCCCCCC.O=S(=O)([N-]S(=O)(=O)C(F)(F)F)C(F)(F)F, for which the activity coefficient is 1.3 and 1.31 (303.15 K); 1.26 and 1.28 (313.15 K); 1.25 ± 0.04 (323.15 K).

Take `CCC(C)=O` [butanone] + CCCCCCCC[N+](C)(CCCCCCCC)CCCCCCCC.O=S(=O)([N-]S(=O)(=O)C(F)(F)F)C(F)(F)F: the activity coefficient is 0.32 and 0.34 (303.15 K); 0.31 and 0.33 (313.15 K); 0.29 and 0.31 (323.15 K).

In the case of `c1ccccc1` [benzene] + CCCCCCCC[N+](C)(CCCCCCCC)CCCCCCCC.O=S(=O)([N-]S(=O)(=O)C(F)(F)F)C(F)(F)F, the activity coefficient is, setting by setting: (303.15 K) 0.32 and 0.31; (313.15 K) 0.31 ± 0.04; (323.15 K) 0.31 and 0.32.

For `C#CCCC` [1-pentyne] + CCCCCCCC[N+](C)(CCCCCCCC)CCCCCCCC.O=S(=O)([N-]S(=O)(=O)C(F)(F)F)C(F)(F)F, the activity coefficient by setting is: (303.15 K) 0.53 and 0.52; (313.15 K) 0.52 and 0.53; (323.15 K) 0.54 and 0.55.

With `C=CCCCC` [hex-1-ene] + CCCCCCCC[N+](C)(CCCCCCCC)CCCCCCCC.O=S(=O)([N-]S(=O)(=O)C(F)(F)F)C(F)(F)F, the activity coefficient reads like this: (303.15 K) 0.89 and 0.88; (313.15 K) 0.85 ± 0.03; (323.15 K) 0.88 and 0.87.

`C#CCCCCCCC` [1-nonyne] + CCCCCCCC[N+](C)(CCCCCCCC)CCCCCCCC.O=S(=O)([N-]S(=O)(=O)C(F)(F)F)C(F)(F)F: the activity coefficient by setting is: (303.15 K) 1.15 ± 0.04; (313.15 K) 1.15 and 1.17; (323.15 K) 1.18 ± 0.04.

With `CC(C)=O` [acetone] + CCCCCCCC[N+](C)(CCCCCCCC)CCCCCCCC.O=S(=O)([N-]S(=O)(=O)C(F)(F)F)C(F)(F)F, the activity coefficient (303.15 K) was determined as 0.35 ± 0.04; the activity coefficient (313.15 K) was 0.4 and 0.38; the activity coefficient (323.15 K) was 0.42 and 0.44.

Values taken from the NIST ThermoML archive (doi:10.1016/j.jct.2009.08.012).
